Patent US20030099674A1 (priority 2001, published 2003)
Read-outs that look alike come from different tables or passages of the source.

Columns and labels:
[1] = Paclitaxel emulsion stability study #2: effect of pH, dry vs liquid emulsions at 40° C.; assay type: physicochemical; conditions: pH 4.0 to 8.9, stored at 40° C., HPLC
Description: These tests were conducted to select optimal pH's for a dry paclitaxel emulsion.
The fine emulsion was divided into 5 portions. The pH of each portion was adjusted to pH 4.0, 5.6, 6.6, 7.8 or 8.9 using 0.2 N HCl or 0.2 N NaOH solution. Average droplet size of each pH adjusted emulsion was determined using LLS.
The stability evaluation included both dry and liquid emulsions (pre-lyophilization) at each pH. These emulsions were stored sealed in glass vials at 40° C.

[2] = in the dry emulsions of MCT or sesame oil at a storage temperature of 25° C. or below
Description: At each time point including the time 0, a vial was removed from each stability temperature chamber and reconstituted with 0.2 ml deionized water to reform the emulsion.
Along with the dry emulsion samples, the liquid emulsion samples (pre-lyophilization) were also included in this study. The liquid emulsions were stored at −20° C.

[3] = no lecithin, 24 hours at 25° C.
Description: The mixtures were agitated for 24 hours at 25° C., and were then filtered through a 0.2 micron filter.

[4] = Stability of paclitaxel in solutions containing oil and soy lecithin (HPLC purity); assay type: physicochemical
Description: The ethanol solution was mixed with the selected oil. […] The resulting oil solutions were sealed in glass vials and stored at 40° C. or at 60° C.

- Stability of paclitaxel in dry versus liquid emulsions [1]: more stable than in the liquid emulsions
- Time paclitaxel is chemically stable [2]: at least 28 days
- Solubility at 25° C. ([3]; MCT oil (Miglyol 812N)): 40 mg/g of oil
- Solubility at 25° C. ([3]; Sesame oil): 5 mg/g of oil
Structure (SMILES): CC(=O)O[C@H]1C(=O)[C@@]2(C)[C@H]([C@H](OC(=O)c3ccccc3)[C@]3(O)C[C@H](OC(=O)[C@H](O)[C@@H](NC(=O)c4ccccc4)c4ccccc4)C(C)=C1C3(C)C)[C@]1(OC(C)=O)CO[C@@H]1C[C@@H]2O [paclitaxel]
- Purity (% paclitaxel peak area over total peak area) Day 0 ([4]; Corn oil with soy lecithin): 98.7 % paclitaxel peak area over total peak area
- Purity (% paclitaxel peak area over total peak area) Day 0 ([4]; Cottonseed oil with soy lecithin): 98.8 % paclitaxel peak area over total peak area
- Purity (% paclitaxel peak area over total peak area) Day 0 ([4]; Ethyl oleate with soy lecithin): 97.0 % paclitaxel peak area over total peak area
- Purity (% paclitaxel peak area over total peak area) Day 0 ([4]; Miglyol 812N with soy lecithin): 99.3 % paclitaxel peak area over total peak area
- Purity (% paclitaxel peak area over total peak area) Day 0 ([4]; Safflower oil with soy lecithin): 98.0 % paclitaxel peak area over total peak area
- Purity (% paclitaxel peak area over total peak area) Day 0 ([4]; Sesame oil + oleic acid, with soy lecithin): 98.5 % paclitaxel peak area over total peak area
- Purity (% paclitaxel peak area over total peak area) Day 0 ([4]; Sesame oil + vit E, with soy lecithin): 99.0 % paclitaxel peak area over total peak area
- Purity (% paclitaxel peak area over total peak area) Day 0 ([4]; Sesame oil + water, with soy lecithin): 99.1 % paclitaxel peak area over total peak area
- Purity (% paclitaxel peak area over total peak area) Day 0 ([4]; Sesame oil with soy lecithin): 99.0 % paclitaxel peak area over total peak area
- Purity (% paclitaxel peak area over total peak area) Day 0 ([4]; Sesame oil without soy lecithin): 99.2 % paclitaxel peak area over total peak area
- Purity (% paclitaxel peak area over total peak area) Day 0 ([4]; Soybean oil with soy lecithin): 99.4 % paclitaxel peak area over total peak area
- Purity (% paclitaxel peak area over total peak area) Day 0 ([4]; Vitamin E with soy lecithin): 96.3 % paclitaxel peak area over total peak area
